{
  "source": "patent US20220331327A1",
  "about": "“THE USE OF PARAXANTHINE TO IMPROVE PERFORMANCE IN VIDEO GAMERS” (priority 2021, published 2022)",
  "format_in_all_cases": "in vivo, human",
  "key": {"[1]": {"tested_on": "healthy men and women playing video games", "assay": "Profile of Mood States (POMS) during gaming", "details": "200 mg daily; for Tension, mean ± SD / Total Mood Disturbance (Tension + Depression + Anger + Fatigue + Confusion − Vigor), Mean ± SD / Vigor, mean ± SD / Tension, Mean of visit / Total Mood Disturbance, Mean of visit / Vigor, Mean of visit: n = 5; for Tension, Mean of visit / Total Mood Disturbance, Mean of visit / Vigor, Mean of visit: mean of 0, 1, 2 h; for Tension, Δ Baseline / Total Mood Disturbance, Δ Baseline / Vigor, Δ Baseline: versus baseline; for Tension, Δ PLA / Total Mood Disturbance, Δ PLA / Vigor, Δ PLA: versus placebo", "protocol": "The effectiveness of study-products (paraxanthine and placebo) was assessed by measuring in-game performance, cognition during gaming (Stroop Test) and mood status during gaming (Profile of Mood States (POMS)). The POMS was completed pre-dose, after 60 minutes of gaming and immediately after completing 120 minutes of video gaming during all study visits. The POMS measured six subscales of mood, including tension-anxiety, depression-dejection, anger-hostility, vigor-activity, fatigue-inertia, and confusion-bewilderment. Subjects were asked to use a 5-point Likert scale (0=not at all, 1=a little, 2=moderately, 3=quite a bit, 4=extremely), to review a list of 65 words (feelings) and rank the degree to which they are experiencing that feeling at the moment. Since high vigor-activity scores reflect good moods or emotions, whereas low scores in the other subscales reflect a good mood or emotion, the total mood disturbance (TMD) score was computed by adding the five negative subscale scores (tension-anxiety, depression-dejection, anger-hostility, fatigue-inertia, and confusion-bewilderment) and subtracting the vigor-activity score. Higher numeric values of the TMD score indicate a greater degree of mood disturbance."}, "healthy subject [2]": {"tested_on": "healthy subject", "assay": "Video game Tetris, game performance measured by play time", "details": "100 mg prior to playing Tetris; one subject", "description": "Each of the three games were separated by a one-week washout period. In Tetris, the player brings down blocks from the top of the screen. The player can move the blocks around, either left to right and/or you can rotate them. The blocks fall at a certain rate, but the player can make them fall faster if he/she is sure of the positioning. The game Tetris becomes more challenging the longer you play. It becomes faster the better the player performs. The player has to make the same decisions but under a higher level of pressure. Each time the player clears a line in Tetris, the player is awarded more points. Each time the pieces reach the top of the screen, the game is over. Game performance was measured by play time. The player was not allowed to press a button to increase the speed of the current piece's descent or cause the piece to drop and lock into place immediately, known as a “soft drop” and a “hard drop”, respectively."}, "healthy subject [3]": {"tested_on": "healthy subject", "assay": "Arcade video game GALAGA, game score", "details": "300 mg prior to playing GALAGA; one subject", "description": "Each of the three game sessions were separated by a one-week washout period. In […], the player mans a lone […] bottom of the screen, which must prevent the […] forces from destroying all of mankind. The objective of each stage is to defeat all of the […] aliens, which will fly into formation from the top and sides of the screen."}, "[4]": {"details": "3 weeks, listed as paraxanthine"}, "[5]": {"details": "6 weeks, listed as paraxanthine"}},
  "data": [
    {"smiles": "Cn1c(=O)[nH]c2ncn(C)c2c1=O", "note": "[Paraxanthine, paraxanthine]", "values": [
      {"measurement": "Tension, mean ± SD", "setting": "[1]; 3 weeks, 0 h", "value": "4.0 ± 2.8"},
      {"measurement": "Total Mood Disturbance (Tension + Depression + Anger + Fatigue + Confusion − Vigor), Mean ± SD", "setting": "[1]; 3 weeks, 0 h", "value": "−6.2 ± 16.6"},
      {"measurement": "Vigor, mean ± SD", "setting": "[1]; 3 weeks, 0 h", "value": "20.4 ± 6.8"},
      {"measurement": "Tension, mean ± SD", "setting": "[1]; 3 weeks, 1 h", "value": "2.0 ± 1.2"},
      {"measurement": "Total Mood Disturbance (Tension + Depression + Anger + Fatigue + Confusion − Vigor), Mean ± SD", "setting": "[1]; 3 weeks, 1 h", "value": "−6.8 ± 13.3"},
      {"measurement": "Vigor, mean ± SD", "setting": "[1]; 3 weeks, 1 h", "value": "18.0 ± 10.0"},
      {"measurement": "Tension, mean ± SD", "setting": "[1]; 3 weeks, 2 h", "value": "2.4 ± 1.3"},
      {"measurement": "Total Mood Disturbance (Tension + Depression + Anger + Fatigue + Confusion − Vigor), Mean ± SD", "setting": "[1]; 3 weeks, 2 h", "value": "−6.4 ± 15.8"},
      {"measurement": "Vigor, mean ± SD", "setting": "[1]; 3 weeks, 2 h", "value": "16.4 ± 10.0"},
      {"measurement": "Tension, Mean of visit", "setting": "[1]; 3 weeks", "value": 2.8},
      {"measurement": "Total Mood Disturbance, Mean of visit", "setting": "[1]; 3 weeks", "value": "−6.5"},
      {"measurement": "Vigor, Mean of visit", "setting": "[1]; 3 weeks", "value": 18.3},
      {"measurement": "Tension, mean ± SD", "setting": "[1]; 6 weeks, 0 h", "value": "2.6 ± 1.8"},
      {"measurement": "Total Mood Disturbance (Tension + Depression + Anger + Fatigue + Confusion − Vigor), Mean ± SD", "setting": "[1]; 6 weeks, 0 h", "value": "−8.2 ± 13.8"},
      {"measurement": "Vigor, mean ± SD", "setting": "[1]; 6 weeks, 0 h", "value": "18.6 ± 8.6"},
      {"measurement": "Tension, mean ± SD", "setting": "[1]; 6 weeks, 1 h", "value": "2.0 ± 1.0"},
      {"measurement": "Total Mood Disturbance (Tension + Depression + Anger + Fatigue + Confusion − Vigor), Mean ± SD", "setting": "[1]; 6 weeks, 1 h", "value": "−11.2 ± 12.4"},
      {"measurement": "Vigor, mean ± SD", "setting": "[1]; 6 weeks, 1 h", "value": "18.2 ± 9.2"},
      {"measurement": "Tension, mean ± SD", "setting": "[1]; 6 weeks, 2 h", "value": "2.2 ± 1.3"},
      {"measurement": "Total Mood Disturbance (Tension + Depression + Anger + Fatigue + Confusion − Vigor), Mean ± SD", "setting": "[1]; 6 weeks, 2 h", "value": "−8.8 ± 13.4"},
      {"measurement": "Vigor, mean ± SD", "setting": "[1]; 6 weeks, 2 h", "value": "17.2 ± 9.8"},
      {"measurement": "Tension, Mean of visit", "setting": "[1]; 6 weeks", "value": 2.3},
      {"measurement": "Total Mood Disturbance, Mean of visit", "setting": "[1]; 6 weeks", "value": "−9.4"},
      {"measurement": "Vigor, Mean of visit", "setting": "[1]; 6 weeks", "value": 18.0},
      {"measurement": "Tension, mean ± SD", "setting": "[1]; Baseline visit, 0 h", "value": "5.4 ± 2.2"},
      {"measurement": "Total Mood Disturbance (Tension + Depression + Anger + Fatigue + Confusion − Vigor), Mean ± SD", "setting": "[1]; Baseline visit, 0 h", "value": "−2.2 ± 10.5"},
      {"measurement": "Vigor, mean ± SD", "setting": "[1]; Baseline visit, 0 h", "value": "19.2 ± 5.3"},
      {"measurement": "Tension, mean ± SD", "setting": "[1]; Baseline visit, 1 h", "value": "5.6 ± 5.4"},
      {"measurement": "Total Mood Disturbance (Tension + Depression + Anger + Fatigue + Confusion − Vigor), Mean ± SD", "setting": "[1]; Baseline visit, 1 h", "value": "−2.6 ± 18.6"},
      {"measurement": "Vigor, mean ± SD", "setting": "[1]; Baseline visit, 1 h", "value": "17.4 ± 6.5"},
      {"measurement": "Tension, mean ± SD", "setting": "[1]; Baseline visit, 2 h", "value": "2.8 ± 1.3"},
      {"measurement": "Total Mood Disturbance (Tension + Depression + Anger + Fatigue + Confusion − Vigor), Mean ± SD", "setting": "[1]; Baseline visit, 2 h", "value": "−0.4 ± 16.1"},
      {"measurement": "Vigor, mean ± SD", "setting": "[1]; Baseline visit, 2 h", "value": "13.2 ± 6.4"},
      {"measurement": "Tension, Mean of visit", "setting": "[1]; Baseline visit", "value": 4.6},
      {"measurement": "Total Mood Disturbance, Mean of visit", "setting": "[1]; Baseline visit", "value": "−1.7"},
      {"measurement": "Vigor, Mean of visit", "setting": "[1]; Baseline visit", "value": 16.6},
      {"measurement": "Tension, Δ Baseline", "setting": "[1]; 3 weeks", "value": "−39.1", "unit": "%"},
      {"measurement": "Total Mood Disturbance, Δ Baseline", "setting": "[1]; 3 weeks", "value": "−282", "unit": "%"},
      {"measurement": "Vigor, Δ Baseline", "setting": "[1]; 3 weeks", "value": "+10.2%"},
      {"measurement": "Vigor, Δ Baseline", "setting": "[1]; [4]", "value": 10.2, "unit": "%"},
      {"measurement": "Tension, Δ PLA", "setting": "[1]; 3 weeks", "value": "−51.7", "unit": "%"},
      {"measurement": "Total Mood Disturbance, Δ PLA", "setting": "[1]; 3 weeks", "value": "−166", "unit": "%"},
      {"measurement": "Vigor, Δ PLA", "setting": "[1]; 3 weeks", "value": "+28.9%"},
      {"measurement": "Vigor, Δ PLA", "setting": "[1]; [4]", "value": 28.9, "unit": "%"},
      {"measurement": "Tension, Δ Baseline", "setting": "[1]; 6 weeks", "value": "−50.0", "unit": "%"},
      {"measurement": "Total Mood Disturbance, Δ Baseline", "setting": "[1]; 6 weeks", "value": "−453", "unit": "%"},
      {"measurement": "Vigor, Δ Baseline", "setting": "[1]; 6 weeks", "value": "+8.4%"},
      {"measurement": "Vigor, Δ Baseline", "setting": "[1]; [5]", "value": 8.4, "unit": "%"},
      {"measurement": "Tension, Δ PLA", "setting": "[1]; 6 weeks", "value": "−61.0", "unit": "%"},
      {"measurement": "Total Mood Disturbance, Δ PLA", "setting": "[1]; 6 weeks", "value": "−189", "unit": "%"},
      {"measurement": "Vigor, Δ PLA", "setting": "[1]; 6 weeks", "value": "+59.3%"},
      {"measurement": "Vigor, Δ PLA", "setting": "[1]; [5]", "value": 59.3, "unit": "%"},
      {"measurement": "worsening of total mood disturbance during continued gaming", "setting": "[1]; after 3 and 6 weeks", "value": "an effect that was not observed in the paraxanthine group"},
      {"measurement": "total mood disturbance, effect in words", "setting": "[1]; after 3 and 6 weeks, compared to baseline and to placebo", "value": "improved total mood disturbance"},
      {"measurement": "decrease of feelings of tension-anxiety compared to baseline", "setting": "[1]; after 3 weeks", "value": 39.1, "unit": "%"},
      {"measurement": "decrease of feelings of tension-anxiety compared to placebo", "setting": "[1]; after 3 weeks", "value": 51.7, "unit": "%"},
      {"measurement": "decrease of feelings of tension-anxiety compared to baseline", "setting": "[1]; after 6 weeks", "value": 50, "unit": "%"},
      {"measurement": "decrease of feelings of tension-anxiety compared to placebo", "setting": "[1]; after 6 weeks", "value": 61.0, "unit": "%"},
      {"measurement": "course of tension with duration of play", "setting": "[1]; the longer the subject played", "value": "tension decreased in the paraxanthine group the longer the subject played"},
      {"measurement": "gaming performance (play time), effect in words", "setting": "healthy subject [2]", "value": "increased gaming performance compared to placebo, and compared to caffeine intake"},
      {"measurement": "average score over 5 games", "setting": "healthy subject [3]", "value": "118,702"},
      {"measurement": "change of average score compared to placebo", "setting": "healthy subject [3]", "value": "+79.4%"},
      {"measurement": "change of personal best compared to placebo", "setting": "healthy subject [3]", "value": "+86.6%"},
      {"measurement": "personal best (high score) of the 5 games", "setting": "healthy subject [3]", "value": "161,070"}
    ]}
  ]
}
